From patent publication US20250248973A1, “CANNABINOID RECEPTOR 1 ANTAGONISTS/INVERSE AGONISTS AND USES THEREOF” (Corbus Pharmaceuticals, Inc., priority 2022, published 2025)

Columns and labels:
[1] = biological target: Human CB1 Receptor-1 (hCB1) (Homo sapiens (Human), UniProt P21554); experiment: hCB1 Gai cyclic AMP (cAMP) TR-FRET assay, antagonism of EC80 CP55940 with forskolin; type: cell-based; conditions: hCB1 cells, 30 min pre-incubation
Method in brief: (§1)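 Cells expressing hCB1 or hCB1b were preincubated with compound for 30 min at rt, then stimulated with an EC80 concentration of CP55940 plus forskolin for 20 min at 37C. cAMP was measured by TR-FRET using Eu-cAMP and 650-labeled anti-cAMP in lysis buffer, with emission at 620/665 nm. IC50 values are binned by category.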

[2] = biological target: Human CB1 Receptor-1b (hCB1b) (Homo sapiens (Human), UniProt P21554); experiment: hCB1b Gai cyclic AMP (cAMP) TR-FRET assay, antagonism of EC80 CP55940 with forskolin; type: cell-based; conditions: hCB1b cells, 30 min pre-incubation, read-out: CB1b IC50
Method in brief: as §1

[3] = Pharmacokinetics following oral administration in male C57BL/6 mice: brain/plasma ratio; type: in vivo; conditions: single PO 10 mg/kg, compared to rimonabant 10 mg/kg PO
Procedure: FIG. 2 provides graphs showing the brain/plasma ratio of orally administered Compound 9 (10 mg/kg) in comparison to orally administered rimonabant (10 mg/kg) C57BL/6J in mice, as measured by area under the curve from 0 to 24 hours (AUC0-24) and maximum concentration (Cmax) post administration.
Example 5. Pharmacokinetics of Following Oral Administration in Male C57BL/6 Mice
A study was conducted to compare the brain/plasma ratios of Compound 9 and rimonabant following oral administration in mice.
Fasted overnight with free access to water and fed 4 hr post dosing
PO administration via oral gavage
Group 2: PO, 10 mg/kg, 10 mL/kg
0.5% MC (400 cp) in purified water (1 mg/mL)
Terminal sampling for brain @0.25, 0.5, 1, 2, 4, 8 and 24 hr, 7 time points. (N=3/timepoint, N=21/arm); collect brains after perfusion.

Sequence of Human CB1 Receptor-1b (hCB1b) (P21554 other isoform, or with tags, fused parts or gaps): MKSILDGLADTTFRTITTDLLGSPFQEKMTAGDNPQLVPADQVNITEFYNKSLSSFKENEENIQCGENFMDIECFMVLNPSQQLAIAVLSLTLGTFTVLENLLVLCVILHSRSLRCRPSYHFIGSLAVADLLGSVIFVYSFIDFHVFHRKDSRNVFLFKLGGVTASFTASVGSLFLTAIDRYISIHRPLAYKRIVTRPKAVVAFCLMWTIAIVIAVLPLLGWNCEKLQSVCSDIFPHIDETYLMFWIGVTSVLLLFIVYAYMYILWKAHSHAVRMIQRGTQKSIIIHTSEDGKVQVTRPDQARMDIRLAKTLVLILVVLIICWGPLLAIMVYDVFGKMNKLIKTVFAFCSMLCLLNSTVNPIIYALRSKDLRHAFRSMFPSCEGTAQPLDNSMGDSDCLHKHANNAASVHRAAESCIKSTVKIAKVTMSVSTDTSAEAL
Sequence of Human CB1 Receptor-1 (hCB1) (P21554 whole entry): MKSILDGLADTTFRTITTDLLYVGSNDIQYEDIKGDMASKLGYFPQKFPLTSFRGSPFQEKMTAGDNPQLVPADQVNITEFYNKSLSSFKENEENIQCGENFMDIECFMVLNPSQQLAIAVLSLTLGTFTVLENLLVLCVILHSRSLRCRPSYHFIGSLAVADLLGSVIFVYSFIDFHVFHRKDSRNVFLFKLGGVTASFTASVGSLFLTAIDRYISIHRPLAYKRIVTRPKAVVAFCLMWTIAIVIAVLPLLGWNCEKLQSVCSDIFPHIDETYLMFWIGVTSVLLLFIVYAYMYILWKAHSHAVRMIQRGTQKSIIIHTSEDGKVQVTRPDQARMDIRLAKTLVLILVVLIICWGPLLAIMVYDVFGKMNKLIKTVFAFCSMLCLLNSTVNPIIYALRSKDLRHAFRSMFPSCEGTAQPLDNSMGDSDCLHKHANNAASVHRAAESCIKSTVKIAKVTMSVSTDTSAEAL

IC50 [1]: < 100 nM
IC50 [2]: < 100 nM
SMILES: NS(=O)(=O)CCNC(=NS(=O)(=O)c1ccc(C(F)(F)F)cc1)N1C[C@H](c2ccccc2)C(c2ccc(Cl)cc2)=N1 [Compound 9, (S,E)-3-(4-chlorophenyl)-4-phenyl-N-(2-sulfamoylethyl)-N′-((4-(trifluoromethyl)phenyl)sulfonyl)-4,5-dihydro-1H-pyrazole-1-carboximidamide]
blood-brain-barrier penetration (brain/plasma ratio by AUC0-24 and Cmax) [3]: substantially reduced blood-brain-barrier penetration as compared to rimonabant
